Data published in patent publication US10646492B2, “Heterocyclylamines as PI3K inhibitors” (Incyte Corporation, priority 2011, dated 2020).

Target: PI3Kδ (p110δ/p85α) (Homo sapiens (Human), UniProt O00329)
Test: PI3Kδ scintillation proximity assay (Example A3)
Format: biochemical
Conditions: 20 μM ATP, 4 nM PI3Kδ, read-out: PI3Kδ SPA IC50
Method: PI3Kδ (p110δ/p85α) was purchased from Millipore (Bedford, Mass.). ATP, MgCl2, DTT, EDTA, MOPS and CHAPS were purchased from SigmaAldrich (St. Louis, Mo.). Wheat Germ Agglutinin (WGA) YSi SPA Scintillation Beads was purchased from GE healthcare life sciences (Piscataway, N.J.). The kinase reaction was conducted in polystyrene 384-well matrix white plate from Thermo Fisher Scientific in a final volume of 25 μL. Inhibitors were first diluted serially in DMSO and added to the plate wells before the addition of other reaction components. The final concentration of DMSO in the assay was 0.5%. The PI3K assays were carried out at room temperature in 20 mM MOPS, pH 6.7, 10 mM MgCl2, 5 mM DTT and CHAPS 0.03%. Reactions were initiated by the addition of ATP, the final reaction mixture consisted of 20 μM PIP2, 20 μM ATP, 0.2 μCi [γ-^33P]ATP, 4 nM PI3Kδ. […] 25 mM EDTA, 400 μM ATP. The final concentration of SPA beads was 1.0 mg/mL. […] IC50 determination was performed by fitting the curve of percent control activity versus the log of the inhibitor concentration using the GraphPad Prism 3.0 software.

Chain of PI3Kδ (p110δ/p85α) (O00329 whole entry): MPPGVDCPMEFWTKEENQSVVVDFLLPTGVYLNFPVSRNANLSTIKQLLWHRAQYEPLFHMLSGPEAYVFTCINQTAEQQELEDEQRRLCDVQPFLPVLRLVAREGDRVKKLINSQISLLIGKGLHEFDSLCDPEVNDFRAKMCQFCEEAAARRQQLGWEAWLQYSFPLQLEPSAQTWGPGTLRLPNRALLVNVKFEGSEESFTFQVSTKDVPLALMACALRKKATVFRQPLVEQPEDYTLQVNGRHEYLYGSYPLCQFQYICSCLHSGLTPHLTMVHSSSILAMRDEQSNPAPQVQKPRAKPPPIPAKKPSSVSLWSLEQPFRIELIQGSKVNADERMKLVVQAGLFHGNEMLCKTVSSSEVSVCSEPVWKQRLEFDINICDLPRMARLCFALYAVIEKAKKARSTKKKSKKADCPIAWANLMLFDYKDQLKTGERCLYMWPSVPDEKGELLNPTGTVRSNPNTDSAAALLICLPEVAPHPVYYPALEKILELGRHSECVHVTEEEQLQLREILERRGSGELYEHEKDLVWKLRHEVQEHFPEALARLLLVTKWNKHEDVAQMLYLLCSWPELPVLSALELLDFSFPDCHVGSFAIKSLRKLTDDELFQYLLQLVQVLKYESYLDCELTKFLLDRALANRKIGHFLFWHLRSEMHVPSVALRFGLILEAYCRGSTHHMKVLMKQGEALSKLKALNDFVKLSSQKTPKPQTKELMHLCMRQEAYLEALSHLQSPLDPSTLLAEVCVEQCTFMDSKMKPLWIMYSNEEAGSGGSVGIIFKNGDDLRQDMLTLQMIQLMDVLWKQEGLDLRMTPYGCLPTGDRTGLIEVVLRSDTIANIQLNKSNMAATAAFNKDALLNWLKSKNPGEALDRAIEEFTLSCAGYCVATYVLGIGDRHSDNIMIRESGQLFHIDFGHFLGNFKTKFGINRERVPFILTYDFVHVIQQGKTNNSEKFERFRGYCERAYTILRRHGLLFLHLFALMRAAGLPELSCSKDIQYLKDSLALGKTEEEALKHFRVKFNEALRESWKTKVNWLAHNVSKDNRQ
Chain of PI3Kδ (p110δ/p85α) (P27986 whole entry partner): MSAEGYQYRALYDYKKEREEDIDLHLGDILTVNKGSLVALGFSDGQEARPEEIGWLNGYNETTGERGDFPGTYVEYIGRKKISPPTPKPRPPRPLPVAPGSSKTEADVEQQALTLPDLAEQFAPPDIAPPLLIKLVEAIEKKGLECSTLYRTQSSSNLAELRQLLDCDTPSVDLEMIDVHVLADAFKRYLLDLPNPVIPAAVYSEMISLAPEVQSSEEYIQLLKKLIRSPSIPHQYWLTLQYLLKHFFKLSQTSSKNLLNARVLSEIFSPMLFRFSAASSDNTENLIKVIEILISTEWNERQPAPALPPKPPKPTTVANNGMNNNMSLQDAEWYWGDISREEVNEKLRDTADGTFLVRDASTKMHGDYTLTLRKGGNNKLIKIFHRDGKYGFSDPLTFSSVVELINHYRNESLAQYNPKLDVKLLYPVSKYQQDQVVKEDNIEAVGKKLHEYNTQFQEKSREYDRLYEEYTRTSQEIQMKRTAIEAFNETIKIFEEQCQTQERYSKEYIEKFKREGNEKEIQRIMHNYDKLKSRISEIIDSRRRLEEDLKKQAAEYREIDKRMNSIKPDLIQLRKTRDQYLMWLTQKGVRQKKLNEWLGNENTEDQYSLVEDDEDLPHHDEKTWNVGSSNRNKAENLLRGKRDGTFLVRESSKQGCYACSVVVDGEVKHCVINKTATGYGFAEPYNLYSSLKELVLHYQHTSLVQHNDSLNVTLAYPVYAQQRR

CCOc1c(C(C)n2nc(C)c3c(N)ncnc32)cc(Cl)c(C#N)c1-c1ccc(C(=O)NC)nc1 (stereo not shown) [Example 333, 5-{3-[1-(4-amino-3-methyl-1H-pyrazolo[3,4-d]pyrimidin-1-yl)ethyl]-5-chloro-6-cyano-2-ethoxyphenyl}-N-methylpyridine-2-carboxamide]
IC50: < 10 nM
